Source: publication PMC10564941, “A morpheein equilibrium regulates catalysis in phosphoserine phosphatase SerB2 from Mycobacterium tuberculosis” (Communications Biology, 2023)

Experiments:
[1] = target: T1, MtSerB2 (phosphoserine phosphatase SerB2) (Mycobacterium tuberculosis, UniProt O53289); assay: steady-state kinetics, malachite green phosphatase assay; SEC-UV/SAXS dimer-to-trimer shift; format: biochemical
T1 construct: full-length dimer fraction, His-tag cleaved

[2] = test system: N[C@@H](COP(=O)(O)O)C(=O)O; assay: purified protein; conditions: Mg2+ ([…] MgCl2 in assay) active site; uncompetitive substrate inhibition

T1 sequence (O53289 whole entry): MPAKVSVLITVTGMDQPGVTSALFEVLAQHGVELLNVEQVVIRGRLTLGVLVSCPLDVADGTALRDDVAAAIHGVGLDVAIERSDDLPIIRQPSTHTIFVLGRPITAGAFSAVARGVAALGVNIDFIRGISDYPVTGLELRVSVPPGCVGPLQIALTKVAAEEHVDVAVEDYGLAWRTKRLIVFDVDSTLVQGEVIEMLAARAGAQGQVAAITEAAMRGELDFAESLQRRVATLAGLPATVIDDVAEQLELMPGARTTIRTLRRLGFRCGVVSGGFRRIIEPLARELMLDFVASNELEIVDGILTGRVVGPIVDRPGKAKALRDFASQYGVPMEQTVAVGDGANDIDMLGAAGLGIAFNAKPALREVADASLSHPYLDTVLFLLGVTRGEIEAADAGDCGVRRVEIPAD

Row | Compound | Ki [1] [µM] | Km [2] [µM]
1 | N[C@@H](CO)C(=O)O [L-Ser] | 22 ± 5.3 | 
2 | MtSerB2 (phosphoserine phosphatase SerB2) (Mycobacterium tuberculosis H37Rv) |  | 480 ± 170
